Molecules are shown by their SMILES.

We go through one compound from publication PMC12985397 (Experimental cell research, 2009).

The target in the assay is histamine H1 receptor (H1R) (Homo sapiens, UniProt P35367). The experiment in a line: [3H]-thymidine incorporation in CHO-H1R cells. Format: cell-based. On the technique in general: Uptake of a labelled nucleoside into DNA is a usual measure of proliferation.
Chain of histamine H1 receptor (H1R) (P35367 whole entry): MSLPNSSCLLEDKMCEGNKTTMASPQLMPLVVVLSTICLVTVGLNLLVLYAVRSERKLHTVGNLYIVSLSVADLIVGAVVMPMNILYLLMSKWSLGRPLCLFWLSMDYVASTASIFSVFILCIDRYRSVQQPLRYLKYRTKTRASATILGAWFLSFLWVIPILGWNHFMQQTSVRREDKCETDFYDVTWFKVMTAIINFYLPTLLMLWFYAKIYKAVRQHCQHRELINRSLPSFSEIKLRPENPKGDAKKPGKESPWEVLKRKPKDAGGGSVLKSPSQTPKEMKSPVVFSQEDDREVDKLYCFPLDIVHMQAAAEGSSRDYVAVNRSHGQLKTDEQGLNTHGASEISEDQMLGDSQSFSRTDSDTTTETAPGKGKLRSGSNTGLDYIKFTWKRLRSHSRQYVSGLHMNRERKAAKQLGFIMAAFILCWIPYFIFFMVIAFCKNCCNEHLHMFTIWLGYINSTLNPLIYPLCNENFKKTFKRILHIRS

Take `NCCc1cnc(-c2cccc(C(F)(F)F)c2)[nH]1` [H1, 2,3-trifluormetilfenilhistamine]: the EC50 was determined as 23.1 ± 3.6 µM.

A word on the EC50: it is the concentration at which the effect is half-maximal. Read a low EC50 as greater potency.
